Assay: xn = mol fraction of the nth substance listed
Conditions: 100 kPa

## CCCN + CCCCCCCC[n+]1ccn(C)c1.F[P-](F)(F)(F)(F)F
293.15 K, x1 = 0.0976
  speed of sound: 1408 m/s
293.15 K, x1 = 0.218
  speed of sound: 1392.4 m/s
293.15 K, x1 = 0.263
  speed of sound: 1388.7 m/s
293.15 K, x1 = 0.3677
  speed of sound: 1375.5 m/s
293.15 K, x1 = 0.4676
  speed of sound: 1363.8 m/s
293.15 K, x1 = 0.6971
  speed of sound: 1327.2 m/s
293.15 K, x1 = 0.7972
  speed of sound: 1296.3 m/s
293.15 K, x1 = 0.9087
  speed of sound: 1260.5 m/s
298.15 K, x1 = 0.0976
  speed of sound: 1393.2 m/s
298.15 K, x1 = 0.218
  speed of sound: 1378.7 m/s
298.15 K, x1 = 0.263
  speed of sound: 1375 m/s
298.15 K, x1 = 0.5629
  speed of sound: 1335.9 m/s
298.15 K, x1 = 0.9087
  speed of sound: 1244 m/s
298.15 K, x1 = 1
  speed of sound: 1213.9 m/s
303.15 K, x1 = 0.0976
  speed of sound: 1381.2 m/s
303.15 K, x1 = 0.218
  speed of sound: 1362.6 m/s
303.15 K, x1 = 0.263
  speed of sound: 1358.9 m/s
303.15 K, x1 = 0.3677
  speed of sound: 1344.5 m/s
303.15 K, x1 = 0.4676
  speed of sound: 1332.1 m/s
303.15 K, x1 = 0.5629
  speed of sound: 1316.2 m/s
303.15 K, x1 = 0.7972
  speed of sound: 1260.7 m/s
308.15 K, x1 = 0.0976
  speed of sound: 1368.6 m/s
308.15 K, x1 = 0.218
  speed of sound: 1348.2 m/s
308.15 K, x1 = 0.3677
  speed of sound: 1330.1 m/s
308.15 K, x1 = 0.4676
  speed of sound: 1314.1 m/s
308.15 K, x1 = 0.5629
  speed of sound: 1299.6 m/s
308.15 K, x1 = 0.6971
  speed of sound: 1270.5 m/s
308.15 K, x1 = 0.7972
  speed of sound: 1239.1 m/s
308.15 K, x1 = 1
  speed of sound: 1164.9 m/s
313.15 K, x1 = 0.218
  speed of sound: 1333.4 m/s
313.15 K, x1 = 0.3677
  speed of sound: 1312.1 m/s
313.15 K, x1 = 0.4676
  speed of sound: 1295.8 m/s
313.15 K, x1 = 0.5629
  speed of sound: 1278.5 m/s
313.15 K, x1 = 0.7972
  speed of sound: 1218.2 m/s
313.15 K, x1 = 0.9087
  speed of sound: 1177.2 m/s
313.15 K, x1 = 1
  speed of sound: 1140.4 m/s

## CCCN + CCCC[n+]1ccn(C)c1.F[P-](F)(F)(F)(F)F
293.15 K, x1 = 0.0684
  speed of sound: 1444.7 m/s
293.15 K, x1 = 0.155
  speed of sound: 1429.8 m/s
293.15 K, x1 = 0.2613
  speed of sound: 1407.5 m/s
293.15 K, x1 = 0.4366
  speed of sound: 1371.3 m/s
293.15 K, x1 = 0.69
  speed of sound: 1315 m/s
293.15 K, x1 = 0.79
  speed of sound: 1288.8 m/s
298.15 K, x1 = 0.155
  speed of sound: 1419.3 m/s
298.15 K, x1 = 0.2613
  speed of sound: 1395 m/s
298.15 K, x1 = 0.4366
  speed of sound: 1355.3 m/s
298.15 K, x1 = 0.5956
  speed of sound: 1320.6 m/s
298.15 K, x1 = 0.79
  speed of sound: 1269.5 m/s
298.15 K, x1 = 0.9026
  speed of sound: 1235.5 m/s
303.15 K, x1 = 0.2613
  speed of sound: 1380.5 m/s
303.15 K, x1 = 0.4366
  speed of sound: 1338 m/s
303.15 K, x1 = 0.69
  speed of sound: 1277.6 m/s
303.15 K, x1 = 0.79
  speed of sound: 1247.8 m/s
303.15 K, x1 = 1
  speed of sound: 1189.5 m/s
308.15 K, x1 = 0.0684
  speed of sound: 1412.4 m/s
308.15 K, x1 = 0.2613
  speed of sound: 1365.2 m/s
308.15 K, x1 = 0.3519
  speed of sound: 1341 m/s
308.15 K, x1 = 0.4366
  speed of sound: 1319.8 m/s
308.15 K, x1 = 0.5956
  speed of sound: 1280.4 m/s
308.15 K, x1 = 0.69
  speed of sound: 1257 m/s
308.15 K, x1 = 0.79
  speed of sound: 1225.2 m/s
308.15 K, x1 = 0.9026
  speed of sound: 1189.2 m/s
308.15 K, x1 = 1
  speed of sound: 1164.9 m/s
313.15 K, x1 = 0.0684
  speed of sound: 1399.6 m/s
313.15 K, x1 = 0.155
  speed of sound: 1380.1 m/s
313.15 K, x1 = 0.2613
  speed of sound: 1348.8 m/s
313.15 K, x1 = 0.3519
  speed of sound: 1324.5 m/s
313.15 K, x1 = 0.4366
  speed of sound: 1300 m/s
313.15 K, x1 = 0.79
  speed of sound: 1202.5 m/s
313.15 K, x1 = 0.9026
  speed of sound: 1165.5 m/s
313.15 K, x1 = 1
  speed of sound: 1140.4 m/s

## CCCC[n+]1ccn(C)c1.F[P-](F)(F)(F)(F)F + CCCN
293.15 K, x2 = 0
  speed of sound: 1454.7 m/s
298.15 K, x2 = 0
  speed of sound: 1442.4 m/s
303.15 K, x2 = 0
  speed of sound: 1430.3 m/s
308.15 K, x2 = 0
  speed of sound: 1418.5 m/s
313.15 K, x2 = 0
  speed of sound: 1406.8 m/s

## CCCCCCCC[n+]1ccn(C)c1.F[P-](F)(F)(F)(F)F + CCCN
293.15 K, x2 = 0
  speed of sound: 1421.2 m/s
298.15 K, x2 = 0
  speed of sound: 1406.4 m/s
308.15 K, x2 = 0
  speed of sound: 1378.8 m/s
313.15 K, x2 = 0
  speed of sound: 1365.7 m/s

## CCCN + CCCCCC[n+]1ccn(C)c1.F[P-](F)(F)(F)(F)F
293.15 K, x1 = 1
  speed of sound: 1238.3 m/s
303.15 K, x1 = 1
  speed of sound: 1189.5 m/s
308.15 K, x1 = 1
  speed of sound: 1164.9 m/s
313.15 K, x1 = 1
  speed of sound: 1140.4 m/s

## CCCCCC[n+]1ccn(C)c1.F[P-](F)(F)(F)(F)F + CCCN
293.15 K, x2 = 0
  speed of sound: 1436.9 m/s
293.15 K, x2 = 0.1718
  speed of sound: 1411 m/s
293.15 K, x2 = 0.2686
  speed of sound: 1396.5 m/s
293.15 K, x2 = 0.3426
  speed of sound: 1385.5 m/s
293.15 K, x2 = 0.4606
  speed of sound: 1365.7 m/s
293.15 K, x2 = 0.5627
  speed of sound: 1347.1 m/s
293.15 K, x2 = 0.6597
  speed of sound: 1324 m/s
293.15 K, x2 = 0.7913
  speed of sound: 1289.8 m/s
293.15 K, x2 = 0.902
  speed of sound: 1258.5 m/s
298.15 K, x2 = 0
  speed of sound: 1423.5 m/s
298.15 K, x2 = 0.0873
  speed of sound: 1408 m/s
298.15 K, x2 = 0.2686
  speed of sound: 1382.6 m/s
298.15 K, x2 = 0.3426
  speed of sound: 1370.4 m/s
298.15 K, x2 = 0.4606
  speed of sound: 1350.8 m/s
298.15 K, x2 = 0.5627
  speed of sound: 1330.3 m/s
298.15 K, x2 = 0.6597
  speed of sound: 1309 m/s
298.15 K, x2 = 0.7913
  speed of sound: 1271.5 m/s
298.15 K, x2 = 0.902
  speed of sound: 1238.6 m/s
303.15 K, x2 = 0
  speed of sound: 1410.6 m/s
303.15 K, x2 = 0.0873
  speed of sound: 1396.1 m/s
303.15 K, x2 = 0.2686
  speed of sound: 1366.5 m/s
303.15 K, x2 = 0.3426
  speed of sound: 1354.3 m/s
303.15 K, x2 = 0.6597
  speed of sound: 1291.1 m/s
303.15 K, x2 = 0.7913
  speed of sound: 1253.1 m/s
303.15 K, x2 = 0.902
  speed of sound: 1216.1 m/s
308.15 K, x2 = 0
  speed of sound: 1398.2 m/s
308.15 K, x2 = 0.1718
  speed of sound: 1370.6 m/s
308.15 K, x2 = 0.2686
  speed of sound: 1351.7 m/s
308.15 K, x2 = 0.3426
  speed of sound: 1337.3 m/s
308.15 K, x2 = 0.4606
  speed of sound: 1315.3 m/s
308.15 K, x2 = 0.7913
  speed of sound: 1230.8 m/s
308.15 K, x2 = 0.902
  speed of sound: 1193 m/s
313.15 K, x2 = 0.0873
  speed of sound: 1372.5 m/s
313.15 K, x2 = 0.1718
  speed of sound: 1357.5 m/s
313.15 K, x2 = 0.2686
  speed of sound: 1336.2 m/s
313.15 K, x2 = 0.3426
  speed of sound: 1320.4 m/s
313.15 K, x2 = 0.4606
  speed of sound: 1297.1 m/s
313.15 K, x2 = 0.6597
  speed of sound: 1250 m/s
313.15 K, x2 = 0.902
  speed of sound: 1170 m/s

Reference: a compilation of properties of binary mixtures (doi:10.1007/s10953-015-0325-1)
